Measured values from US20250214925A1, “CATIONIC LIPID, LIPOSOME, LIPID NANOPARTICLE, AND USE” (CARCELL BIOPHARMA LTD., priority 2022, published 2025).

Assays:
[1] = LNP size and PDI by dynamic laser light scattering; type: physicochemical; details: LNP: 50% cationic lipid, 38.5% cholesterol, 10% DSPC, 1.5% DMG-PEG2000; Ffluc mRNA
Procedure, shortened: (§1)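 LNPs of cationic lipid/cholesterol/DSPC/DMG-PEG2000 at 50/38.5/10/1.5 mol% in ethanol, mixed with Ffluc mRNA at 0.2 mg/mL in 10 mM pH 4.0 citrate via T-mixer at 40 mL/min. Dialyzed overnight against 50 mM Tris-buffered saline pH 7.4 and sieved; PDI by dynamic light scattering, encapsulation by Ribogreen.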

[2] = mRNA encapsulation efficiency of LNP by Ribogreen assay; type: physicochemical; details: LNP: 50% cationic lipid, 38.5% cholesterol, 10% DSPC, 1.5% DMG-PEG2000; Ffluc mRNA
Procedure, shortened: as §1

mice [3] = experiment: In vivo delivery of Ffluc mRNA LNP in mice, intravenous administration, luminescence relative to MC3; set-up: species or system mice (female Balb/C); details: fold change in luminescence intensity relative to MC3; 0.06 mg/kg tail vein; 6 h after injection
Procedure, shortened: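 Female Balb/C mice (18-22 g, 6-8 weeks, n=5) received Ffluc mRNA LNP at 0.06 mg/kg by tail vein in 50 mM TBS pH 7.4. Six hours later, intraperitoneal D-luciferin was given and whole-body luminescence imaged, with each lipid reported as fold change relative to MC3 LNP.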

mice [4] = experiment: In vivo delivery of Ffluc mRNA LNP in mice, intramuscular administration, luminescence relative to MC3; set-up: species or system mice (female Balb/C); details: fold change in luminescence intensity relative to MC3; 50 μL of 0.1 mg/mL mRNA LNP into right thigh; 6 h after injection
Method: The prepared encapsulation solution was applied to mice in the following manner, and its delivery efficiency in mice was tested. Among them, DLin-MC3-DMA (MC3) was a cationic liposome for delivering small nucleic acids that was approved by the FDA for marketing in 2018, which has high nucleic acid drug delivery efficiency and biosafety, and was usually used as the industry gold standard in the screening process of cationic lipids. In the evaluation of mice experiments, the ratio of nucleic acid delivery efficiency normalized to MC3 was greater than 0.1, which was considered to be a cationic lipid with high delivery efficiency.
The LNP solution was diluted with 50 mM TBS, pH 7.4 to a concentration of 0.1 mg/mL mRNA.
2. The mice involved in this study were female Balb/C, weighing 18-22 g, 6-8 weeks old, with 5 mice in each group.
3. The dosing solution was kept at 4° C. prior to injection.
4. 50 μL of LNP solution was injected into the right thigh of the mice.
5. The mice were injected intraperitoneally with 200 μL of 1.5 mg/mL D-luciferin solution 6 h after injection.
6. The in vivo luminescence images of the mice were obtained using the IVIS system (Aniview).
7. The luminescence intensity of each mice was measured using Aniview software.
8. MC3 lipid nanoparticles were used as a positive control. The in vivo efficacy of each cationic lipid tested was recorded as the fold change in luminescence intensity relative to MC3 (ratio normalized to MC3).

PDI [1]	Size (nm) [1] [nm]	Encapsulation Rate [2] [%]	Compound	In Vivo Efficacy Normalized To Mc3 In Mice (Intravenous Injection) (mice [3])	In Vivo Efficacy Normalized To Mc3 In Mice (Intramuscular Injection) (mice [4])
0.24	97.7	96	CCCCCCCC/C(=C/C(=O)OCCCCCCCCN(CCCO)CCCCCCCCOC(=O)/C=C(\CCCCC)CCCCCCCC)CCCCC [CPL-113-01, ((3-hydroxypropyl)azanediyl)bis(octane-8,1-diyl) (2E,2′E)-bis(3-pentylundec-2-enoate)]	2.52	1.65
0.2	92.9	98	CCCCCCCCCC/C(=C\C(=O)OCCCCCCCCCN(CCCO)CCCCCCCCCOC(=O)/C=C(\CCCCC)CCCCCCCCCC)CCCCC [CPL-136]	2.81	1.61
0.1973	71.62	95	CCCCCCC/C(=C/C(=O)OCCCCCCCN(CCCO)CCCCCCCOC(=O)/C=C(\CCCC)CCCCCCC)CCCC [CPL-096, ((3-hydroxypropyl)azanediyl)bis(heptane-7,1-diyl)(2E,2′E)-bis(3-butyldec-2-enoate)]	2.06	2.59
0.1225	70.36	85	CCCCCC/C(=C/C(=O)OCCCCCCCCN(CCCO)CCCCCCCCOC(=O)/C=C(\CCCC)CCCCCC)CCCC [CPL-456-01, ((3-hydroxypropyl)azanediyl)bis(octane-8,1-diyl) (2E,2′E)-bis(3-butylnon-2-enoate)]	7.36	5.51
0.19	87.2	98	CCCCCCCCCC/C(=C/C(=O)OCCCCCCN(CCCO)CCCCCCOC(=O)/C=C(\CCCC)CCCCCCCCCC)CCCC [CPL-066, ((3-hydroxypropyl)azanediyl)bis(hexane-6,1-diyl) (2E,2′E)-bis(3-butyl-2-tridecenoate)]	1.95	4.04
0.2143	71.34	95	CCCCCCCCCC/C(=C\C(=O)OCCCCN(CCCO)CCCCOC(=O)/C=C(/CCCCC)CCCCCCCCCC)CCCCC [CPL-026, ((3-hydroxypropyl)azanediyl)bis(butane-4,1-diyl) (2Z,2′Z)-bis(3-pentyltridec-2-enoate)]	2.51	0.92
0.1334	66.8	86	CCCCCCCCCC/C(=C/C(=O)OCCCCCCCCCCCN(CCCO)CCCCCCCCCCCOC(=O)/C=C(\CCCCC)CCCCCCCCCC)CCCCC [CPL-180-01, ((3-hydroxypropyl)azanediyl)bis(undecane-11,1-diyl) (2E,2′E)-bis(3-pentyltridec-2-enoate)]	9.31	0.72
0.1437	90.31	93	CCCCCC/C(=C/C(=O)OCCCCCCCCCCN(CCCO)CCCCCCCCCCOC(=O)/C=C(\CCC)CCCCCC)CCC [CPL-148, ((3-hydroxypropyl)azanediyl)bis(decane-10,1-diyl) (2E,2′E)-bis(3-propylnon-2-enoate)]	2.15	2.56
0.0486	94.43	92	CCCCCCCC/C(=C/C(=O)OCCCCCCCCCN(CCCO)CCCCCCCCCOC(=O)/C=C(\CCC)CCCCCCCC)CCC [CPL-127, ((3-hydroxypropyl)azanediyl)bis(nonane-9,1-diyl) (2E,2′E)-bis(3-propylundec-2-enoate)]	2.54	2.37
0.1733	88.06	92	CCCCCCC(=CC(=O)OCCCCCCN(CCCO)CCCCCCOC(=O)C=C(CCCCCC)CCCCCC)CCCCCC [CPL-071, ((3-hydroxypropyl)azanediyl)bis(hexane-6,1-diyl) (2E,2′E)-bis(3-hexylnon-2-enoate)]	2.05	7.81
0.0828	67.12	98	CCCCCCCCCC/C(=C/C(=O)OCCCCCCN(CCCO)CCCCCCOC(=O)/C=C(\CCC)CCCCCCCCCC)CCC [CPL-062-01, ((3-hydroxypropyl)azanediyl)bis(hexane-6,1-diyl) (2E,2′E)-bis(3-propyltridec-2-enoate)]	2.21	1.06
0.1174	83.86	91	CCCCC/C=C\C/C=C\CCCCCCCC(=O)OCC(COC(=O)/C=C(\CCCCCC)CCCCCCCCCC)COC(=O)OCC1CCCN(C)C1 (stereo not drawn) [CPL-381, 3-(((E)-3-hexyltridec-2-enoyl)oxy)-2-(((((1-methylpiperidin-3-yl)methoxy)carbonyl)oxy)methyl)propyl(9Z,12Z)-octadeca-9,12-dienoate]	0.81	–
0.1099	82.38	96	CCCCC/C=C\C/C=C\CCCCCCCC(=O)OCC(COC(=O)/C=C(\CCCCC)CCCCCCCCCC)COC(=O)OCC1CCCN(C)C1 (stereo not drawn) [CPL-378, 3-((((1-methylpiperidin-3-yl)methoxy)carbonyl)oxy)-2-((((E)-3-_pentyltridec-2-enoyl)oxy)methyl)propyl(9Z,12Z)-octadeca-9,12-dienoate]	0.43	–
0.0875	73.57	97	CCCCC/C=C\C/C=C\CCCCCCCC(=O)OCC(COC(=O)/C=C(\CCCCCC)CCCCCCC)COC(=O)OCC1CCN(CC)CC1 (stereo not drawn) [CPL-449, 3-((((1-ethylpiperidin-4-yl)methoxy)carbonyl)oxy)-2-((((E)-3-hexyldec-2-enoyl)oxy)methyl)propyl(9Z,12Z)-octadeca-9,12-dienoate]	0.49	–
0.0596	75.57	97	CCCCC/C=C\C/C=C\CCCCCCCC(=O)OCC(COC(=O)/C=C(\CCCC)CCCCCCCC)COC(=O)OCC1CCN(C)C1 (stereo not drawn) [CPL-329, 3-(((E)-3-butylundec-2-enoyl)oxy)-2-(((((1-methylpyrrolidin-3-yl)methoxy)carbonyl)oxy)methyl)propyl(9Z,12Z)-octadeca-9,12-dienoate]	0.33	–

Compound	PDI [1]	Size (nm) [1] [nm]	Encapsulation Rate [2] [%]	In Vivo Efficacy Normalized To Mc3 In Mice (Intravenous Injection) (mice [3])	In Vivo Efficacy Normalized To Mc3 In Mice (Intramuscular Injection) (mice [4])
CCCCCCCC/C(=C/C(=O)OCCCCCCN(CCCO)CCCCCCOC(=O)/C=C(\CCCCC)CCCCCCCC)CCCCC [CPL-069-01, ((3-hydroxypropyl)azanediyl)bis(hexane-6,1-diyl) (2E,2′E)-bis(3-pentylundec-2-enoate)]	0.126	84.59	97	2.70	1.72
((3-hydroxypropyl)azanediyl)bis(butane-4,1-diyl) (2E,2′E)-bis(2-hexylidenedecanoate) [CPL-025]	0.2	92.1	97	1.34	–
CCCCC/C=C\C/C=C\CCCCCCCC(=O)OCC(COC(=O)/C=C(\CCCCC)CCCCCC)COC(=O)OCCCN(C)C (stereo not drawn) [CPL-222, 3-(((3-(dimethylamino)propoxy)carbonyl)oxy)-2-((((E)-3-pentylnon-2-enoyl)oxy)methyl)propyl(9Z,12Z)-octadeca-9,12-dienoate]	0.0629	72.01	96	0.37	–
